Measurements published in US12590062B2, “PD-1/PD-L1 inhibitors” (Gilead Sciences, Inc., priority 2017, dated 2026).

Biological target: T1, PD-1/PD-L1 interaction (Homo sapiens, UniProt Q9NZQ7)
T1 construct: expressed in transfected cells; host or cells: CHO cells (aAPC-PD-L1) co-cultured with Jurkat cells overexpressing PD-1 and an NFAT-luciferase reporter
Test: PD-1/PD-L1 NFAT reporter co-culture assay
Format: cell-based
Details: not given
Description: PD-1/PD-L1 NEAT Reporter Assay:
Compounds were tested in afunctional co-culture reporter assay in which TCR-mediated NFAT activity is inhibited by the engagement of PD-1 with PD-L1. […] CHO cells expressing surface-bound anti-CD3 antibodies and PD-L1 (artificial antigen presenting cells, aAPC-PD-L1) were first seeded overnight. Jurkat cells overexpressing PD-1 and expressing a luciferase construct under NFAT control are diluted in RPMI assay medium (RPMI 1640 with 2% FBS), mixed with compounds, and immediately seeded on the monolayer of aAPC-PD-L1. The co-culture is then incubated for 6 hrs at 37° C. Luciferase activity is assessed by adding the ONE-Glo reagent and measuring luminescence with a plate reader. EC50 values are calculated from the fit of the dose-response curves to a four-parameter equation (Table 3).

T1 sequence (Q9NZQ7 19-290): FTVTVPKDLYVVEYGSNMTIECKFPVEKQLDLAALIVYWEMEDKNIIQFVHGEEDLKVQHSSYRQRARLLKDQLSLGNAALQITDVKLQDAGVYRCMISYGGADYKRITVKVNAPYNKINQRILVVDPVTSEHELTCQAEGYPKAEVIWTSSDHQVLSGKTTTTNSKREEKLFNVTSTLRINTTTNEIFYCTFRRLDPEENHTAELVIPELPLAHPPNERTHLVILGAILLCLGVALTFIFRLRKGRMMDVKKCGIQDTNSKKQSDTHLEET

SMILES	EC50 [nM]
COc1nc(OCc2cccc(-c3cccc(COc4nc(OC)c(CNCc5cc(O)no5)cc4Cl)c3C)c2C)c(Cl)cc1CNCc1cc(O)no1 [Example 63, 5,5′-(((((((2,2′-dimethyl-[1,1′-biphenyl]-3,3′-diyl)bis(methylene))bis(oxy))bis(5-chloro-2-methoxypyridine-6,3-diyl))bis(methylene))bis(azanediyl))bis(methylene))bis(isoxazol-3-ol)]	≥ 50000

Same assay, conditions: Jurkat PD-1 NFAT-luciferase cells co-cultured with aAPC-PD-L1 CHO cells, 6 hrs at 37° C.; read-out: EC50 NFAT Luciferase

SMILES	EC50 [nM]
COc1nc(OCc2cccc(-c3cccc(COc4nc(OC)c(C(CC(=O)O)N(C)C)cc4Cl)c3C)c2C)c(Cl)cc1C(CC(=O)O)N(C)C (mixture of isomers) [Example 236, 3,3′-((((2,2′-dimethyl-[1,1′-biphenyl]-3,3′-diyl)bis(methylene))bis(oxy))bis(5-chloro-2-methoxypyridine-6,3-diyl))bis(3-(dimethylamino)propanoic acid)]	5030
COc1nc(OCc2cccc(-c3cccc(COc4nc(OC)c(CN5CC(NC(C)=O)C5)cc4Cl)c3C)c2C)c(Cl)cc1CN1CC(NC(C)=O)C1 [Example 37, N,N′-((((((2,2′-dimethyl-[1,1′-biphenyl]-3,3′-diyl)bis(methylene))bis(oxy))bis(5-chloro-2-methoxypyridine-6,3-diyl))bis(methylene))bis(azetidine-1,3-diyl))diacetamide]	894
COc1nc(OCc2cccc(-c3cccc(COc4nc(OC)c(CN[C@@](C)(CO)C(=O)O)cc4Cl)c3C)c2C)c(Cl)cc1CN[C@@](C)(CO)C(=O)O [Example 44, (2S,2′S)-2,2′-((((((2,2′-dimethyl-[1,1′-biphenyl]-3,3′-diyl)bis(methylene))bis(oxy))bis(5-chloro-2-methoxypyridine-6,3-diyl))bis(methylene))bis(azanediyl))bis(3-hydroxy-2-methylpropanoic acid)]	62
COc1nc(OCc2cccc(-c3cccc(COc4nc(OC)c(CN[C@](C)(CO)C(=O)O)cc4Br)c3C)c2C)c(Br)cc1CN[C@](C)(CO)C(=O)O [Example 46, (2R,2′R)-2,2′-((((((2,2′-dimethyl-[1,1′-biphenyl]-3,3′-diyl)bis(methylene))bis(oxy))bis(5-bromo-2-methoxypyridine-6,3-diyl))bis(methylene))bis(azanediyl))bis(3-hydroxy-2-methylpropanoic acid)]	87
COc1nc(OCc2cccc(-c3cccc(COc4nc(OC)c(CN[C@@H](CO)C(=O)O)cc4Cl)c3C)c2C)c(Cl)cc1CN[C@@H](CO)C(=O)O [Example 50, (2S,2′S)-2,2′-((((((2,2′-dimethyl-[1,1′-biphenyl]-3,3′-diyl)bis(methylene))bis(oxy))bis(5-chloro-2-methoxypyridine-6,3-diyl))bis(methylene))bis(azanediyl))bis(3-hydroxypropanoic acid)]	76
COc1nc(OCc2cccc(-c3cccc(COc4nc(OC)c(CN[C@H](C(=O)O)[C@@H](C)O)cc4Cl)c3C)c2C)c(Cl)cc1CN[C@H](C(=O)O)[C@@H](C)O [Example 51, (2S,2′S,3R,3′R)-2,2′-((((((2,2′-dimethyl-[1,1′-biphenyl]-3,3′-diyl)bis(methylene))bis(oxy))bis(5-chloro-2-methoxypyridine-6,3-diyl))bis(methylene))bis(azanediyl))bis(3-hydroxybutanoic acid)]	105
COc1nc(OCc2cccc(-c3cccc(COc4nc(OC)c(CNC(CO)c5nn[nH]n5)cc4Cl)c3C)c2C)c(Cl)cc1CNC(CO)c1nn[nH]n1 (stereo not shown) [Example 52, 2,2′-((((((2,2′-dimethyl-[1,1′-biphenyl]-3,3′-diyl)bis(methylene))bis(oxy))bis(5-chloro-2-methoxypyridine-6,3-diyl))bis(methylene))bis(azanediyl))bis(2-(2H-tetrazol-5-yl)ethan-1-ol)]	19800
Cc1c(COc2cc(OCc3cncc(C#N)c3)c(CN3CCCC[C@H]3C(=O)O)cc2Cl)cccc1-c1cccc(COc2cc(OCc3cncc(C#N)c3)c(CN3CCCC[C@H]3C(=O)O)cc2Cl)c1C [Example 53, (2S,2′S)-1,1′-(((((2,2′-dimethyl-[1,1′-biphenyl]-3,3′-diyl)bis(methylene))bis(oxy))bis(5-chloro-2-((5-cyanopyridin-3-yl)methoxy)-4,1-phenylene))bis(methylene))bis(piperidine-2-carboxylic acid)]	722
CCOC(=O)C[C@H](O)CNCc1cc(C2CC2)c(OCc2cccc(-c3cccc(COc4nc(OC)c(CNC[C@@H](O)CC(=O)O)cc4C4CC4)c3C)c2C)nc1OC [Example 56, (S)-4-(((5-cyclopropyl-6-((3′-(((3-cyclopropyl-5-((((S)-4-ethoxy-2-hydroxy-4-oxobutyl)amino)methyl)-6-methoxypyridin-2-yl)oxy)methyl)-2,2′-dimethyl-[1,1′-biphenyl]-3-yl)methoxy)-2-methoxypyridin-3-yl)methyl)amino)-3-hydroxybutanoic acid]	≥ 50000
Cc1c(COc2cc(OCc3cccc(S(C)(=O)=O)c3)c(CN[C@@](C)(CO)C(=O)O)cc2Cl)cccc1-c1cccc(COc2cc(OCc3cccc(S(C)(=O)=O)c3)c(CN[C@@](C)(CO)C(=O)O)cc2Cl)c1C [Example 57, (2S,2′S)-2,2′-((((((2,2′-dimethyl-[1,1′-biphenyl]-3,3′-diyl)bis(methylene))bis(oxy))bis(5-chloro-2-((3-(methylsulfonyl)benzyl)oxy)-4,1-phenylene))bis(methylene))bis(azanediyl))bis(3-hydroxy-2-methylpropanoic acid)]	351
COc1nc(OCc2cccc(-c3cccc(COc4nc(OC)c(CN5CCc6[nH]cnc6C5C(=O)O)cc4Cl)c3C)c2C)c(Cl)cc1CN1CCc2[nH]cnc2C1C(=O)O (stereo not shown) [Example 62, 5,5′-(((((2,2′-dimethyl-[1,1′-biphenyl]-3,3′-diyl)bis(methylene))bis(oxy))bis(5-chloro-2-methoxypyridine-6,3-diyl))bis(methylene))bis(4,5,6,7-tetrahydro-1H-imidazo[4,5-c]pyridine-4-carboxylic acid)]	19500
COc1nc(OCc2cccc(-c3cccc(COc4nc(OC)c(CN[C@](C)(CO)C(=O)O)cc4C4CC4)c3C)c2C)c(C2CC2)cc1CN[C@](C)(CO)C(=O)O [Example 64, (2R,2′R)-2,2′-((((((2,2′-dimethyl-[1,1′-biphenyl]-3,3′-diyl)bis(methylene))bis(oxy))bis(5-cyclopropyl-2-methoxypyridine-6,3-diyl))bis(methylene))bis(azanediyl))bis(3-hydroxy-2-methylpropanoic acid)]	9780
COc1nc(OCc2cccc(-c3cccc(COc4nc(OC)c(CN5CCC5C(N)=O)cc4Cl)c3C)c2C)c(Cl)cc1CN1CCC1C(N)=O (stereo not shown) [Example 65, 1,1′-(((((2,2′-dimethyl-[1,1′-biphenyl]-3,3′-diyl)bis(methylene))bis(oxy))bis(5-chloro-2-methoxypyridine-6,3-diyl))bis(methylene))bis(azetidine-2-carboxamide)]	3350
COc1nc(OCc2cccc(-c3cccc(COc4nc(OC)c(CN[C@@H]5CCC[C@H]5C(=O)O)cc4Cl)c3C)c2C)c(Cl)cc1CN[C@@H]1CCC[C@H]1C(=O)O [Example 75, (1R,1′R,2R,2′R)-2,2′-((((((2,2′-dimethyl-[1,1′-biphenyl]-3,3′-diyl)bis(methylene))bis(oxy))bis(5-chloro-2-methoxypyridine-6,3-diyl))bis(methylene))bis(azanediyl))bis(cyclopentane-1-carboxylic acid)]	384
COc1nc(OCc2cccc(-c3cccc(COc4nc(OC)c(CNCC(C)(C)C(=O)O)cc4Cl)c3C)c2C)c(Cl)cc1CNCC(C)(C)C(=O)O [Example 77, 3,3′-((((((2,2′-dimethyl-[1,1′-biphenyl]-3,3′-diyl)bis(methylene))bis(oxy))bis(5-chloro-2-methoxypyridine-6,3-diyl))bis(methylene))bis(azanediyl))bis(2,2-dimethylpropanoic acid)]	≥ 50000
COc1nc(OCc2cccc(-c3cccc(COc4nc(OC)c(CN[C@@H]5CCC[C@@H]5C(=O)O)cc4Cl)c3C)c2C)c(Cl)cc1CN[C@@H]1CCC[C@@H]1C(=O)O [Example 79, (1S,1′S,2R,2′R)-2,2′-((((((2,2′-dimethyl-[1,1′-biphenyl]-3,3′-diyl)bis(methylene))bis(oxy))bis(5-chloro-2-methoxypyridine-6,3-diyl))bis(methylene))bis(azanediyl))bis(cyclopentane-1-carboxylicacid)]	381
COc1nc(OCc2cccc(-c3cccc(COc4nc(OC)c(CN[C@H]5CCCC[C@@H]5C(=O)O)cc4Cl)c3C)c2C)c(Cl)cc1CN[C@H]1CCCC[C@@H]1C(=O)O [Example 80, (1S,1′S,2S,2′S)-2,2′-((((((2,2′-dimethyl-[1,1′-biphenyl]-3,3′-diyl)bis(methylene))bis(oxy))bis(5-chloro-2-methoxypyridine-6,3-diyl))bis(methylene))bis(azanediyl))bis(cyclohexane-1-carboxylic acid)]	≥ 50000
COc1nc(OCc2cccc(-c3cccc(COc4nc(OC)c(CNC(C)(C)CC(=O)O)cc4Cl)c3C)c2C)c(Cl)cc1CNC(C)(C)CC(=O)O [Example 82, 3,3′-((((((2,2′-dimethyl-[1,1′-biphenyl]-3,3′-diyl)bis(methylene))bis(oxy))bis(5-chloro-2-methoxypyridine-6,3-diyl))bis(methylene))bis(azanediyl))bis(3-methylbutanoic acid)]	1710
